Test results taken from ChEMBL document CHEMBL1201862, “PubChem BioAssay data set” (2004).
The source made the active and inactive calls.

How the values were obtained:
[1] = biological target: T1, Short transient receptor potential channel 4 (Mus musculus, UniProt Q9QUQ5); experiment: mouse TRPC4 channel inhibitors, dose response, cell-based, HEK293 TRPC4/mu-opioid, Fluo-4 calcium (AID 434942); format: functional;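 also: potency of inhibitors blocking the TRPC4 calcium response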
T1 sequence (Q9QUQ5 whole entry): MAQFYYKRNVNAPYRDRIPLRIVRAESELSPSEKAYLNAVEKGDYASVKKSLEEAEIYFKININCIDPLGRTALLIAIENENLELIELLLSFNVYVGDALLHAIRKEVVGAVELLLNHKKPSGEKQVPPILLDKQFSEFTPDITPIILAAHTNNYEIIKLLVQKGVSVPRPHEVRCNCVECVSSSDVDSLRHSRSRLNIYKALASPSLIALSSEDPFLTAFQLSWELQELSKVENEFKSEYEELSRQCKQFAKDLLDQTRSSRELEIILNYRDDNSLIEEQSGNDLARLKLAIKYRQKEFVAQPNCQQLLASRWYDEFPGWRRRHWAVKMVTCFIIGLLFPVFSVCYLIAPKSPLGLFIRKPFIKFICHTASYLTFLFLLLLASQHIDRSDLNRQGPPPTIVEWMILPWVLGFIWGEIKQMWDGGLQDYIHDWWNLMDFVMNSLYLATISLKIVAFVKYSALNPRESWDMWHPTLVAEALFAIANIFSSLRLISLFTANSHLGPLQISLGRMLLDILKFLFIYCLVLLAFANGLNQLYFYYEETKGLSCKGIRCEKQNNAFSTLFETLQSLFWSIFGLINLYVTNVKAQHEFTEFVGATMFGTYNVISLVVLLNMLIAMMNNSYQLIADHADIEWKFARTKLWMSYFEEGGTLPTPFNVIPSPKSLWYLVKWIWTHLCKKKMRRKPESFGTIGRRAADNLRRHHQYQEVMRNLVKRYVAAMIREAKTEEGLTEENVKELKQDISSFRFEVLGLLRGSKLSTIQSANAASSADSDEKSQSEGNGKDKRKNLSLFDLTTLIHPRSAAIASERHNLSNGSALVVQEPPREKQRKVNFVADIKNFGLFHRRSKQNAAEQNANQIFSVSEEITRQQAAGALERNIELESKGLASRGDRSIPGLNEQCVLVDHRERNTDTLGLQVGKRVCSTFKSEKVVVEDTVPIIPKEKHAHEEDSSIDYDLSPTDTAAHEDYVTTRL

cells [2] = format: functional, cell-based
cells [3] = format: functional, cell-based; remark: listed apart in the source
Trypsin = Trypsin (Sus scrofa, UniProt P00761); experiment: porcine trypsin inhibitors, dose response, selectivity assay for Rce1 protease inhibitor project, biochemical, quenched peptide fluorescence, cherry-pick (AID 488789)
[4] = biological target: T2, High affinity choline transporter 1 (Homo sapiens, UniProt Q9GZV3); experiment: CHT inhibitors, dose response, cell-based, 5-point CRC, membrane potential dye (AID 504840); format: functional
T2 sequence (Q9GZV3 whole entry): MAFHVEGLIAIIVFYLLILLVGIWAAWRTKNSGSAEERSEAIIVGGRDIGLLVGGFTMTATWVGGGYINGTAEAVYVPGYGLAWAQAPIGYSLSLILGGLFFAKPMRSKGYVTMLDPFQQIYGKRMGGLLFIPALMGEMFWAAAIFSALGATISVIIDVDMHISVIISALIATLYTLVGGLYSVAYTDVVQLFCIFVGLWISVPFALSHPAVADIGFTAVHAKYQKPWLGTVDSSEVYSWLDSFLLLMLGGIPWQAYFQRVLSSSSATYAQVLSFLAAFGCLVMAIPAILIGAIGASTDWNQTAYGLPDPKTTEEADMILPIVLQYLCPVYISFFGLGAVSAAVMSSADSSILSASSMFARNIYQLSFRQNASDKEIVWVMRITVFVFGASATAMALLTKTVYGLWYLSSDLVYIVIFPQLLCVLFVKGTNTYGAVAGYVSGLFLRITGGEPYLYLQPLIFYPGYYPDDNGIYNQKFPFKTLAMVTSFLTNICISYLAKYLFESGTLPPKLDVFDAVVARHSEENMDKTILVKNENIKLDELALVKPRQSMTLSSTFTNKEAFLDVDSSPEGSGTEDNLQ

Protein skinhead-1 = biological target: T3, Protein skinhead-1 (Caenorhabditis elegans, UniProt P34707); format: functional
T3 sequence (P34707 whole entry): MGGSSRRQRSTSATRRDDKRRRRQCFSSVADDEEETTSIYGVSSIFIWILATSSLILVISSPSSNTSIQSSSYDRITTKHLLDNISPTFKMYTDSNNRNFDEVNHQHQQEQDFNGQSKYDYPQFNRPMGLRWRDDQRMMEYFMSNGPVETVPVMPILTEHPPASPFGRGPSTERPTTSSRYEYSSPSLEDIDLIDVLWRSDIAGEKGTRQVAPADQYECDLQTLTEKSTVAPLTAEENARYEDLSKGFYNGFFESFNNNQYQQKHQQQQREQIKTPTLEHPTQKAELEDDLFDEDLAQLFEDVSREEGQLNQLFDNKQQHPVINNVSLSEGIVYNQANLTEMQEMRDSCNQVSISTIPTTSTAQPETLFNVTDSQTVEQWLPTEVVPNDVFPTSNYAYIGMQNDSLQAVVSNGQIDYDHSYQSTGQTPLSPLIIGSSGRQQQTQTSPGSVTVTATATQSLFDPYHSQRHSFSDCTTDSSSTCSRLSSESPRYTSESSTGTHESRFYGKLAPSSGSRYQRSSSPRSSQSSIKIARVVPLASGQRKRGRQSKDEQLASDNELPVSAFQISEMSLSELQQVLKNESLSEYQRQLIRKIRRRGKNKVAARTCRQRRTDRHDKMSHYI

H4 = experiment: Luminescence Cell-Based Dose Response HTS to Identify Activators of 5'UTR Stem-Loop Driven Prion Protein mRNA Translation in H4 Neuroglioblastoma Cells. [Related pubchem assays: 1829 (Project Summary), 1814 (Primary HTS)]; format: functional; details: Homo sapiens
Nonstructural protein 1 = Nonstructural protein 1 (Influenza A virus, UniProt Q194T2); format: functional, Influenza A virus (A/California/07/2009(H1N1))
[5] = Luminescence Cell-Based Dose Confirmation HTS to Identify Activators of 5'UTR Stem-Loop Driven Alpha-Synuclein mRNA Translation in H4 Neuroglioblastoma Cells. [Related pubchem assays: 1829 (Project Summary), 1814 (Primary HTS)]; format: functional
[6] = Luminescence Cell-Based Dose Response HTS to Identify Activators of Luciferase Translation or Activity in H4 […] Cells. [Related pubchem assays: 1829 (Project Summary), 1814 (Primary HTS)]; format: functional
Streptokinase A = biological target: T4, Streptokinase A (Streptococcus pyogenes serotype M1, UniProt P10520); experiment: S. pyogenes streptokinase expression inhibitors, potency, dose response, plasminogen activation absorbance, OD405 (AID 1914); format: functional, Streptococcus pyogenes M1 GAS;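 also: secreted streptokinase activity via plasminogen activation per viability signal from cell pellet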
T4 sequence (P10520 whole entry): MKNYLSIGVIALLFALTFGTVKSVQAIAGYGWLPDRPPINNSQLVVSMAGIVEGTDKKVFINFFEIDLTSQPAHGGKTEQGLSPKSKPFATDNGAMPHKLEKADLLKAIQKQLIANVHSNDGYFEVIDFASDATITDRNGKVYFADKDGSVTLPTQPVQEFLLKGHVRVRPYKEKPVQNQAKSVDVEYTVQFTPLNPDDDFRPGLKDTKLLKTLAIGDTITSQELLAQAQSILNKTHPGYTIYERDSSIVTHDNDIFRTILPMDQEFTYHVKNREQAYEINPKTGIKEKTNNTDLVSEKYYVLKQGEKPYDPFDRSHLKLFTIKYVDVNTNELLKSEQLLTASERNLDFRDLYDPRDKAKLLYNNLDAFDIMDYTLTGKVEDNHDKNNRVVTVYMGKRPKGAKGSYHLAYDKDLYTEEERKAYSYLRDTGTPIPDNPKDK

INS1 = experiment: beta cell apoptosis inhibitors, cytokine rescue, dose response, luminescence, retest (AID 449756); format: functional, cell-based; details: Rattus norvegicus;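 also: cell death triggered by IL-1 beta plus TNF-alpha plus IFN-gamma mixture; protective hits raise ATP signal compared with cytokine alone wells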
[7] = biological target: FAD-linked sulfhydryl oxidase ALR (Homo sapiens, UniProt P55789); experiment: inhibitors of human ALR sulfhydryl oxidase, dose response, biochemical, H2O2 detection, luminescence, cherry-pick (AID 493248)
Genome polyprotein = Genome polyprotein (dengue virus type 2, UniProt P29990); experiment: Dengue-2 NS5 methyltransferase inhibitors, primary screen, biochemical, confirmation dose response (AID 588689); format: functional
[8] = THP-1 cell cytotoxicity, dose response, cytotoxicity control for non-replicating M. tuberculosis project (AID 489025); format: functional
Vero = experiment: cells; format: functional; details: Chlorocebus sabaeus
[9] = inhibitors of clade B AD8 Env fusion, dose response, cell-based, cherry-pick (AID 652062); format: functional;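 also: luciferase signal from cell-cell fusion driven by HIV-1 clade B AD8 Env; potency is for inhibitors of fusion seen as a drop in luminescence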

FAD-linked sulfhydryl oxidase ALR, sequence (P55789 whole entry): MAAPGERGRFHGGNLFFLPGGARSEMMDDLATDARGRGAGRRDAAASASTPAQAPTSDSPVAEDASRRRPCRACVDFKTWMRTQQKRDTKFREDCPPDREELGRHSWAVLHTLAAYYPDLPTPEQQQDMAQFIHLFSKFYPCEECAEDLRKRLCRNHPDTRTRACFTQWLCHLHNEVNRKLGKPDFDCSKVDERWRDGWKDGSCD
Nonstructural protein 1, sequence (Q194T2 whole entry): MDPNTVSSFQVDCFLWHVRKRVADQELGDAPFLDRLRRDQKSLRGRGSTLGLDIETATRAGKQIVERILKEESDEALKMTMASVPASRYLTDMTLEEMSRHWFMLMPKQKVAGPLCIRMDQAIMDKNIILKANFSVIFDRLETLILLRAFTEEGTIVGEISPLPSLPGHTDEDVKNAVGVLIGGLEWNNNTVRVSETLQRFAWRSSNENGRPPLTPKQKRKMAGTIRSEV
Trypsin, sequence (P00761 whole entry): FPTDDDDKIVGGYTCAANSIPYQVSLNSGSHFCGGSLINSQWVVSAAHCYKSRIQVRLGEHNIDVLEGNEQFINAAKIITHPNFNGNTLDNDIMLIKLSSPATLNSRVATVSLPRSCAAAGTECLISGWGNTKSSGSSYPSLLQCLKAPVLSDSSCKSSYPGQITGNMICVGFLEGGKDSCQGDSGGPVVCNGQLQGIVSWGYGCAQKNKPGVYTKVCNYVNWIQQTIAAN
Genome polyprotein, sequence (P29990 2492-3391 limits assumed): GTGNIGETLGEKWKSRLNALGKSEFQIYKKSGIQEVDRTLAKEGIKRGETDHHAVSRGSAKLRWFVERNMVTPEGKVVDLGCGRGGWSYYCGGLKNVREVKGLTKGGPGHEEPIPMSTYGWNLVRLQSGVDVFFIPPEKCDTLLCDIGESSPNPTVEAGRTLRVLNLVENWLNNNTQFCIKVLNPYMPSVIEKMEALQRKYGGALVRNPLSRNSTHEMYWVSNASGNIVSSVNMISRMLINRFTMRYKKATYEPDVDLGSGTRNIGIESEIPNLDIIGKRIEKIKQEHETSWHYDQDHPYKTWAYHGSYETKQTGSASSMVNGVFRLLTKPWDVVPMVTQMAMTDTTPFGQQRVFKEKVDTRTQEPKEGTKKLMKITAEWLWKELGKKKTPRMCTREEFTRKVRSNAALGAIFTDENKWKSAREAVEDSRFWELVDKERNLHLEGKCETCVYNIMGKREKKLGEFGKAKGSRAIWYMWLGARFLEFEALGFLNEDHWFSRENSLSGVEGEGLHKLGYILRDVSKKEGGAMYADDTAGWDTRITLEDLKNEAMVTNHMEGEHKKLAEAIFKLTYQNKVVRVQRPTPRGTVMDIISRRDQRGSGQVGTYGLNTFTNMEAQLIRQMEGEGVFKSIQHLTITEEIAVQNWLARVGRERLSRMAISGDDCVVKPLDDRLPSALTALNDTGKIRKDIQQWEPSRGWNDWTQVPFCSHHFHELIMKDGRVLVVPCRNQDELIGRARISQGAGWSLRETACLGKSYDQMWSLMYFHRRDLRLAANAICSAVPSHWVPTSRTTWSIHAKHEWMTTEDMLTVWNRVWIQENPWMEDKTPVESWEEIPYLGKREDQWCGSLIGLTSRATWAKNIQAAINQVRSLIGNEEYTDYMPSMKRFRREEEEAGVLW

For `CCc1c(C(=O)N2CCCN(C)CC2)csc1C`, the EC50 [1] was 5.96 µM (active).
In the case of `Fc1ccccc1N=C(S)Nc1ccc(Br)cc1`, the EC50 (cells [2]) is reported as > 350 µM (not active) and the EC50 (cells [3]) is reported as 169 µM (active).
With `NC(=O)C1CCCN(Cc2c(C(=O)N3CCc4ccccc4C3)nc3ccc(Cl)cn23)C1` (stereo not given) the EC50 (cells [2]) was > 350 µM (not active) and the EC50 (cells [3]) was > 350 µM (not active).
In the case of `COc1ccccc1N1CCN(C(=O)c2coc(=O)c(Br)c2)CC1`, the AC50 (Trypsin) is reported as 9.18 µM (active).
With `COC(=O)c1ccc(-n2cncn2)c([N+](=O)[O-])c1` the EC50 (cells [2]) was > 350 µM (not active) and the EC50 (cells [3]) was > 350 µM (not active).
For `C=CCc1ccccc1OCC(CN1CCCCC1)OC(C)=O` (stereo not given), the EC50 [1] was 5.31 µM (active).
In the case of `CN1Cc2sc(N)c(C#N)c2CC1(C)C`, the IC50 [4] is reported as 22.9 µM (active).
For `O=[N+]([O-])c1ccccc1NCCOc1ccccc1`, the IC50 (Protein skinhead-1) was 96.3 µM (inactive), the EC50 (H4) was 5.5 µM (active) and the IC50 (Nonstructural protein 1) was > 100 µM (active). The EC50 [5] was 23.6 µM (active) and the EC50 [6] was 24 µM (active).
For `COc1cccc(C2CC(c3cccs3)=NN2C(=O)CSc2nc3c(cnn3-c3ccc(F)cc3)c(=O)[nH]2)c1OC` (stereo not given), the AC50 (Trypsin) was 3.95 µM (active) and the EC50 (Streptokinase A) was > 50 µM (not active).
For `Cc1ccc(C2=NOC(=O)/C2=C\c2ccccc2)cc1`, the EC50 (cells [2]) was > 350 µM (not active) and the EC50 (cells [3]) was > 350 µM (not active).
With `COc1ccc(C(=O)NC(Cc2ccc(OC(=O)c3ccc(OC)cc3)cc2)C(=O)O)cc1` (stereo not given) the IC50 [4] was 9.12 µM (active).
With `Cc1ccc(N=C(S)N(CCCN(C)C)Cc2cc3cc4c(cc3nc2O)OCO4)c(C)c1` the EC50 [1] was 3.35 µM (active).
With `CCOc1nc(Nc2ccc(OC)cc2)nc(OCC)n1` the EC50 (cells [2]) was > 350 µM (not active) and the EC50 (cells [3]) was > 350 µM (not active).
With `O=C(NCCCn1ccnc1)c1cn(-c2ccccc2)nc1-c1ccc(F)cc1` the IC50 [4] was 11.5 µM (active).
In the case of `CCN(CC)c1ccc(N=C2C(=O)Nc3ccccc32)cc1`, the AC50 (INS1) is reported as 20.2 µM (active), the AC50 [7] is reported as 2.06 µM (active) and the IC50 (Nonstructural protein 1) is reported as 14.3 µM (active). For the same molecule, the IC50 (Genome polyprotein) was > 100 µM (active).
For `CN(Cc1ccccc1)C(=O)CSc1nnc(-c2ccco2)n1-c1ccccc1`, the EC50 [1] was 1.68 µM (active).
For `Cn1c(-c2cccc([N+](=O)[O-])c2)cnc1NCc1cccc(F)c1`, the AC50 [7] was 1.92 µM (active) and the CC50 [8] was > 40 µM (active).
With `COc1ccc(CN(C)C(=O)c2ccc(NC(=O)CC3SC(N4CCCC4)=NC3=O)cc2)c(OC)c1` (stereo not given) the EC50 [1] was 2.37 µM (active).
With `CCOC(=O)c1cnc(SCc2ccc(Cl)c(Cl)c2)nc1N1CC1` the CC50 (Vero) was > 25 µM (active).
With `CCCNC(=O)C[C@H]1C[C@H]2c3cc(NC(=O)CN(C)C)ccc3O[C@H]2[C@@H](CO)O1` the AC50 [9] was 38.6 µM (active).
With `CC(C)(C)CC(C)(C)NCC(O)COc1ccc2c(c1)CCC2` (stereo not given) the EC50 [1] was 3.35 µM (active).
